In EP0450761A1, “Spirocyclic oxytocin antagonists” (MERCK & CO. INC., priority 1990, dated 1991):

Columns and labels:
[1] = molecular target: T1, uterine OT receptors (Rattus norvegicus, UniProt P70536); assay: [³H]OT radioligand binding to uterine OT receptors, crude membrane preparation of uteri from DES-treated rats
T1 construct: a crude membrane preparation of uteri; from tissue; host or cells: uterus of DES-treated rats, crude membrane preparation
T1 sequence (P70536 1-388): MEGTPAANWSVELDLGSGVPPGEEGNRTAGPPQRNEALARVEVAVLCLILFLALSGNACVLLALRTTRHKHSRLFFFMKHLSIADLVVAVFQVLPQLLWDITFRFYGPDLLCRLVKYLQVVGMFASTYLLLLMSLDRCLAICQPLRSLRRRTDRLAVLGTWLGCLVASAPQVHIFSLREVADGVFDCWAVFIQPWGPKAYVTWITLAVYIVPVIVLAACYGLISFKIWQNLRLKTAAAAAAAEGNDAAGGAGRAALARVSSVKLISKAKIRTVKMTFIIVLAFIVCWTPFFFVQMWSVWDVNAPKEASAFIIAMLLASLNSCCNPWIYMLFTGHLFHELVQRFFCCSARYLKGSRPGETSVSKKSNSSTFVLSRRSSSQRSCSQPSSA
Procedure: Competition studies were conducted at equilibrium (60 min; 22°C) using 1 nM [³H]OT in the following assay buffer: 50 mM Tris-HCl, 5 mM MgCl₂, and 0.1% BSA, pH 7.4.
(§1) *Inhibition is expressed either as IC₅₀ in µM, or as % inhibition @ a specified concentration of the test compound (µM). The IC₅₀ is the concentration of the text compound which inhibits specific binding by 50%. The % inhibition at a specified concentration of the test compound is that percentage of specific binding which is inhibited by said concentration of said test compound.

[2] = molecular target: T2, AVP-V₁ sites (Rattus norvegicus, UniProt P30560); assay: [³H]AVP radioligand binding, crude membrane preparation of male rat liver (AVP-V₁ sites); conditions: for IC50: 1 nM [³H]AVP, rat liver membranes, 30 min at 30°C, read-out: Inhibition Vasopressin V1 IC50; for inhibition at 10 µM: 10 µM test compound, % of specific [³H]AVP binding inhibited (liver), read-out: Inhibition Vasopressin V1 % inhibition @ 10
T2 construct: a crude membrane preparation of male rat liver (AVP-V₁ sites); from tissue; host or cells: male rat liver, crude membrane preparation
T2 sequence (P30560 whole entry): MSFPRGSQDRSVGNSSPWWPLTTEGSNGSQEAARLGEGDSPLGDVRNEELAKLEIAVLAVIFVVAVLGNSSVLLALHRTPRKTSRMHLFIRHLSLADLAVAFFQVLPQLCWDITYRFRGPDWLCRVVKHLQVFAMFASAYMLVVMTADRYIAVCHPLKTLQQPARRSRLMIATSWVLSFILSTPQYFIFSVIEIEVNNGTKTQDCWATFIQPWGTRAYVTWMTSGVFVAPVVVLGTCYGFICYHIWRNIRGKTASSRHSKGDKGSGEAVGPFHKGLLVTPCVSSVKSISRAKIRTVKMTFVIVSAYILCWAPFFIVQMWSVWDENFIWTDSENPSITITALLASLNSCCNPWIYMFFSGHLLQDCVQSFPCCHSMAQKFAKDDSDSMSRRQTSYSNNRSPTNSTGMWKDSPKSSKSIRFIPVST
Text: as §1

[3] = molecular target: T3, AVP-V₂ sites (Rattus norvegicus, UniProt Q00788); assay: [³H]AVP radioligand binding, crude membrane preparation of male rat kidney medulla (AVP-V₂ sites); conditions: for inhibition at 10 µM: 10 µM test compound, % of specific [³H]AVP binding inhibited (kidney), read-out: Inhibition Vasopressin V2 % inhibition @ 10
T3 construct: male rat liver (AVP-V₁ sites) or kidney medulla (AVP-V₂ sites); from tissue; host or cells: male rat kidney medulla, crude membrane preparation
T3 sequence (Q00788 whole entry): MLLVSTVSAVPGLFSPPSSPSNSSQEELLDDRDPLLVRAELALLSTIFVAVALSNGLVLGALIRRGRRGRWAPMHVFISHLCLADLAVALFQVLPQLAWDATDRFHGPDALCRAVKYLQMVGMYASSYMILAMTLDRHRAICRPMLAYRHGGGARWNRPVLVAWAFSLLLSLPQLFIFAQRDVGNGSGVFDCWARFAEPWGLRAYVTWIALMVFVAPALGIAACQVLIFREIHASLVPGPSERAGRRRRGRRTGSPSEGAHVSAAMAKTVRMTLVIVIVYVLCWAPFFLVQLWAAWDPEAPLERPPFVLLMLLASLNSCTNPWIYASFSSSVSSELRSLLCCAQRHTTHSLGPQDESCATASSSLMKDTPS
Text: as §1

CC1(C)[C@@H]2CC[C@@]1(CS(=O)(=O)N1CCC3(C=Cc4ccccc43)CC1)C(O)(c1ccccc1)C2 (stereo partly drawn) [Example 11]
IC50 [1]: 490 nM

CC1(C)[C@@H]2CC[C@@]1(CS(=O)(=O)N1CCC3(C=Cc4ccccc43)CC1)[C@@](O)(CC(=O)O)C2 [Example 20, (1S(1.ALPHA.,2.ALPHA.,4.ALPHA.))-2-HYDROXY-7,7-DIMETHYL-1-((SPIRO(1H-INDENE-1,4′-PIPERIDIN)-1′-YLSULFONYL)METHYL)-BICYCLO-(2.2.1)HEPTANE-2-ACETIC ACID]
IC50 [2]: 89000 nM | IC50 [1]: 570 nM | IC50 ([3]; 2 nM [³H]AVP, rat kidney medulla membranes, 30 min at 30°C, read-out: Inhibition Vasopressin V2 IC50): 83000 nM

[³H]OT [reference compound]
Kd ([1]; radioligand, uterus, read-out: Kd values obtained from saturation binding assay): 0.7 nM

CC1(C)[C@@H]2CC[C@@]1(CS(=O)(=O)N1CCC3(C=Cc4ccccc43)CC1)C(=O)C2 [Example 6]
inhibition at 10 µM [2]: 2% | inhibition at 10 µM [3]: 3%

CC1(C)[C@@H]2CC[C@@]1(CS(=O)(=O)N1CCC3(C=Cc4ccccc43)CC1)[C@](C)(O)C2 [Example 13, EXO-(1S)-1′-(((2-HYDROXY-2,7,7-TRIMETHYLBICYCLO-(2.2.1)HEPT-1-YL)METHYL)SULFONYL)SPIRO(1H-INDENE-1,4′-PIPERIDINE)]
inhibition at 10 µM [2]: 45% | inhibition at 10 µM [3]: 5%

COC(=O)C[C@@]1(O)C[C@H]2CC[C@]1(CS(=O)(=O)N1CCC3(C=Cc4ccccc43)CC1)C2(C)C [Example 19, (1S(1.ALPHA.,2.ALPHA.,4.ALPHA.))-2-HYDROXY-7,7-DIMETHYL-1-((SPIRO(1H-INDENE-1,4′-PIPERIDIN)-1′-YLSULFONYL)METHYL)BICYCLO(2.2.1)HEPTANE-2-ACETIC ACID METHYL ESTER]
inhibition at 10 µM [2]: 54% | inhibition at 10 µM [3]: 20%

CCC1(O)CC2CC[C@]1(CS(=O)(=O)N1CCC3(C=Cc4ccccc43)CC1)C2(C)C (stereo partly drawn) [Example 15]
IC50 [2]: ~9000 nM | IC50 [1]: 470 nM

CC1(C)[C@H]2CC[C@]1(CS(=O)(=O)N1CCC3(C=Cc4ccccc43)CC1)C(=O)C2 [Example 7]
inhibition at 10 µM [2]: 0% | inhibition at 10 µM [3]: 6%

CC1(C)[C@@H]2CC[C@@]1(CS(=O)(=O)N1CCC3(C=Cc4ccccc43)CC1)C(=NO)C2 [Example 27]
inhibition at 10 µM [2]: 52% | IC50 [1]: 490 nM | inhibition at 10 µM [3]: 21%
